Results taken from patent US20250108139A1, “PEPTIDE UREA DERIVATIVE, PHARMACEUTICAL COMPOSITION CONTAINING PEPTIDE UREA DERIVATIVE, AND APPLICATION OF PEPTIDE UREA DERIVATIVE” (BIVISION PHARMACEUTICALS, INC, priority 2022, published 2025).

How the values were obtained:
PSMA protein = PSMA protein (Homo sapiens (Human), UniProt Q04609); assay: Affinity of DB compounds to PSMA protein using Biacore (Effect Example 3); conditions: Biacore 8K, 15° C., 1:1 binding model; pKD=−Log KD
Protocol: The affinity of DB compounds to PSMA protein was tested using the Biacore 8K (Cytiva) instrument to detect ligand binding to PSMA protein (Sino Biological). PSMA protein was captured on an SA chip. Before fixing the ligand (flow paths 1 and 2, flow rate of 10 μL/min), PSMA protein (10 μg/mL, flow rate of 5 μL/min, injection time of 600 s) was fixed on flow path 2 using a flow buffer. The sensor surface was adjusted by continuously injecting 1 M NaCl three times in 50 mM NaOH. After each ligand injection, additional cleaning was performed using isopropanol in 1 M NaCl and 50 mM NaOH (flow paths 1 and 2, flow rate of 10 μL/min, injection time of 60 s).
All compounds were dissolved in 100% DMSO and diluted to 10 mM, then further diluted to the appropriate highest concentration in the analysis buffer (PBS, PH 7.4, 1 mM TCEP ([…]), 0.05% P20, 2% DMSO). The analysis was conducted under the following conditions: 15° C. analysis temperature; analysis steps=all set to LMW kinetics; cycle type=single cycle (90 s contact time, 1800 s dissociation time, 30 μL/min flow rate, flow paths 1 and 2); detection in flow=path 2-1. Data evaluation was performed using Biacore Insight Evaluation Software, fitting the data to a 1:1 binding model.
Biacore results are shown in Table 5: pKD=−Log KD, wherein KD is the binding affinity of the compound to PSMA protein measured by Biacore. It is expressed by Kd (M)=Kd (1/s)/Ka (1/Ms). A indicates pKD>8; B indicates 7<pKD<8; C indicates 6<pKD<7; D indicates pKD<6.

albumin in rat plasma = assay: Plasma protein binding (PPB) test by ultrafiltration; format: in vitro ADME; conditions: 177Lu-labeled compound
Protocol: The labeled compounds ^177Lu-E-3, 177Lu-DB-13, 177Lu-DB-18, and ^177Lu-DB-19 (1 μCi) were prepared in a reaction solution by adding 50 μL of PBS to achieve a concentration of 20 μCi/mL. 50 μL of the 20 μCi/mL reaction solution was added to 200 μL of plasma, repeated for 3 tubes. The mixture was mixed well and incubated at room temperature for 10 minutes, then added to ultrafiltration tubes and centrifuged at 13000 rpm for 45 minutes. Following this, 50 μL of normal saline was added and the samples were centrifuged again for 15 minutes. The upper chamber and the filtrate were respectively counted for radioactivity.
PPB=[(upper chamber counts−background counts]/(filtrate counts+upper chamber counts−2*background counts)]*100%.

[1] = Determination of Log P (n-octanol/water partition); format: physicochemical; conditions: 177Lu-labeled compound, mean of three tubes
Protocol: Three EP tubes were prepared, each containing 0.1 mL of saturated n-octanol and 80 μL of ultrapure water. Then, 20 μL (approximately 1 MBq) of the ^177Lu-labeled DB-13, DB-18, and DB-19 compound solutions were added to the respective tubes. After shaking evenly, the tubes were centrifuged at room temperature (2000 r/min, 5 minutes, centrifugation radius of 10 cm). From each tube, 100 μL was taken from both the lipid layer and the aqueous layer, and the radioactivity counts per minute for both phases were measured. The Log P values were calculated, and their mean values were taken as the final result.

[2] = molecular target: PSMA-expressing cells (22Rv1) (Homo sapiens (Human), UniProt Q04609); assay: Competitive binding against radiolabeled PSMA-617 ligand on 22Rv1 cells; conditions: unlabeled compound vs radiolabeled PSMA-617 ligand, on ice 2 hours
Protocol: (1) 22Rv1 cells in the logarithmic growth phase were prepared into a cell suspension, and the cell density was adjusted to 1×10^4 cells/mL. 1 mL of the cell suspension was seeded into each well of a 24-well cell culture plate. The cells were cultured overnight in a 37° C. incubator.
(2) The cell culture medium was aspirated, and the cells were washed once with PBS. Then, 975 μL of additive-free medium was added.
(3) To each well, 25 μL of a fixed concentration of radiolabeled PSMA-617 ligand (final concentration in the medium: 2 μCi/mL) and different concentrations (final concentrations in the medium: 1000 ng/ml, 100 ng/mL, 10 ng/mL, 1 ng/mL, 0.1 ng/mL, 0.01 ng/mL, 0.001 ng/mL, 0 ng/ml) of the unlabeled test blocking compounds DB-18, DB-19, DB-13, E-3 were added.
(4) The cells were incubated on ice for 2 hours.
(5) The cells were washed three times with ice-cold PBS.
(6) The cells were lysed with 0.5 mL of 1 M sodium hydroxide, and washed twice with 0.5 mL PBS. The sodium hydroxide (0.5 mL) and PBS (0.5 mL×2) solutions were collected for uptake counting.

[3] = system: 22rv1 tumor-bearing Balb/c Nude mouse; assay: Treatment efficacy in 22RV1 tumor-bearing mouse model; format: in vivo; conditions: for T/C: 21st day; for Tumor volume, 21st day of group administration: mean ± standard error
Protocol: Balb/c Nude mouse, approximately 6-8 weeks old, were subcutaneously inoculated with 3×10^6 22rv1 cells (in 50% Matrigel, Corning) into the right scapular region. Once the tumors reached the required size for the experiment, the animals were randomly assigned into 11 experimental groups based on tumor volume, with 5 mouse per group. The body weight and tumor size of the animals were measured. On the day of grouping, treatments were administered as follows: control group (normal saline), group 1 (^177Lu-DB-13, 0.15 mCi/mouse), group 2 (^177Lu-DB-13, 0.45 mCi/mouse), group 3 (^177Lu-DB-13, 0.05 mCi/mouse), group 4 (^177Lu-B-11, 0.05 mCi/mouse), group 5 (^177Lu-DB-11, 0.15 mCi/mouse), group 6 (^177Lu-DB-11, 0.45 mCi/mouse), group 7 (^177Lu-PSMA-617, 0.15 mCi/mouse), group 8 (^177Lu-PSMA-617, 0.45 mCi/mouse), group 9 (^177Lu-DB-19, 0.05 mCi/mouse), group 10 (^177Lu-DB-19, 0.15 mCi/mouse), group 11 (^177Lu-DB-19, 0.45 mCi/mouse). After the start of treatment, general health and appearance were observed daily. Body weight and tumor size were measured at each sampling time point. Any abnormal observations during the study were recorded in the raw data.

[4] = system: PSMA-positive 22rv1 tumor-bearing mouse; assay: 177Lu labeling and animal biodistribution experiment, gamma counter; format: in vivo; conditions: 177Lu-labeled compound, 24 h after tail vein injection, n = 2
Protocol: Distribution in PSMA-positive tumor-bearing mouse tissues: Tumor-bearing animals (purchased from Shanghai Alamo Pharmaceutical Technology Co., Ltd.) were subcutaneously inoculated with 3×10^6 22rv1 cells (in 50% Matrigel, Corning) into the right shoulder region of 6-9 week old (Balb/c Nude) mouse. Once the tumors had grown to an appropriate size, ^177Lu-radiolabeled DB compounds were injected into the mouse via the tail vein (approximately 1.85 MBq-3.7 MBq/mouse, specific activity: 22423.82 Kbq/μg). After administration, the animals were euthanized using carbon dioxide inhalation at 24 hours. The blood and organs (blood, liver, kidney, muscle, tumor) were collected.
Blood was collected through the abdominal aorta and 100 μL was immediately quantified into designated centrifuge tubes (weighed). After collection, the organs were washed twice with deionized water, dried, placed in pre-weighed tubes, and weighed again to calculate the sample weight. Samples were measured on the day of collection. All blood and tissue samples were measured for radioactivity using a gamma counter. The results are shown in FIGS. 3, 4, 5, 6, 7, and Table 6.

hPSMA-biotin = hPSMA-biotin (Homo sapiens (Human), UniProt Q04609); assay: Binding kinetics and affinity with PSMA protein by Biacore 8K (Effect Example 1); conditions: for Kd / kd / kon: 1:1 binding model; for kon: read-out: ka
Protocol: The dissociation constant was determined using the Biacore 8K (GE Healthcare) following the manufacturer's instructions. In brief, PSMA-bio protein, diluted in PBS pH 7.4 with 1 mM TCEP, 0.05% Tween 20, and 2% DMSO buffer, was immobilized on the flow cell of an SA sensor chip. Using PBS pH 7.4, 1 mM TCEP, 0.05% Tween 20, and 2% DMSO as the running buffer, five serial dilutions of the PSMA-targeting candidate molecules were injected into the flow cell at a rate of 30 μL/min, with a binding time of 90 seconds. The buffer flow was maintained for 1800 seconds to allow dissociation. The KD values for the interaction between the candidate small molecules and the PSMA protein were evaluated using Biacore 8K evaluation software 1.0 and a 1:1 binding model.

Sequence of hPSMA-biotin (Q04609 whole entry): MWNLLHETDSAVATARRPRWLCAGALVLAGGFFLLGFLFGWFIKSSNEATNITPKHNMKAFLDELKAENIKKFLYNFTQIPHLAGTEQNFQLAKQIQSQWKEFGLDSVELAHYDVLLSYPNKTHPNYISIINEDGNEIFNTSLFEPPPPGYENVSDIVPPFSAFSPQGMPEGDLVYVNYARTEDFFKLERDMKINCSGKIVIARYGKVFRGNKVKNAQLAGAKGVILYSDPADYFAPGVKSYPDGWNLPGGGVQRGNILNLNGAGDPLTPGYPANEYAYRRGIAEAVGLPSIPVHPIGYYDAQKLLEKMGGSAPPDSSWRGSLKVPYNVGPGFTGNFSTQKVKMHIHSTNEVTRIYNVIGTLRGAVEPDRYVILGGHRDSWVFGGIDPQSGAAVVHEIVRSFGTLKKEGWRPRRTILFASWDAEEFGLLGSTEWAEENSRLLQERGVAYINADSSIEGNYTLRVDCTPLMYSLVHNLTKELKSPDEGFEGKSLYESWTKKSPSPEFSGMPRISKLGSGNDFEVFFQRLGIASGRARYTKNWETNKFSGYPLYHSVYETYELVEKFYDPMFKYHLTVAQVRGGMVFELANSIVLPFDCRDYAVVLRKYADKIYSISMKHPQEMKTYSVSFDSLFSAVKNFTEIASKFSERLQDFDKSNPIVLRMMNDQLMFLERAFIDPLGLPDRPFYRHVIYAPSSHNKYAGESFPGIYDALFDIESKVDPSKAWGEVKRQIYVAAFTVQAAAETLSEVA
Sequence of PSMA protein (Q04609 whole entry): as above
Sequence of PSMA-expressing cells (22Rv1) (Q04609 whole entry): as above

Kd (PSMA protein) [nM] | plasma protein binding ratio (albumin binding ratio) (albumin in rat plasma) [%] | logP [1] | IC50 [2] [nM] | Blood uptake [4] [% ID/g] | Kidney uptake [4] [% ID/g] | Liver uptake [4] [% ID/g] | Muscle uptake [4] [% ID/g] | SMILES | also measured
< 10 | 70.51 | -1.86 | 2.58 | – | – | – | – | O=C(O)CC[C@H](NC(=O)NC(CCCCNC(=O)[C@H](Cc1ccc2ccccc2c1)NC(=O)c1ccc2c(c1)CCN(C(=O)c1cc(NC(=O)CN3CCN(CC(=O)O)CCN(CC(=O)O)CCN(CC(=O)O)CC3)cc(C(=O)N3CCc4cc(C(=O)N[C@@H](Cc5ccc6ccccc6c5)C(=O)NCCCC[C@H](NC(=O)N[C@@H](CCC(=O)O)C(=O)O)C(=O)O)ccc4C3)c1)C2)C(=O)O)C(=O)O (stereo partly drawn) [DB-18] | –
< 10 | – | – | – | 1.125 | 87.105 | 1.625 | 0.055 | O=C(O)CC[C@H](NC(=O)N[C@@H](CCCCNC(=O)[C@H](Cc1ccc2ccccc2c1)NC(=O)c1ccc2c(c1)CCN(C(=O)CCC(=O)NCCCC[C@H](NC(=O)CCC(=O)N1CCc3cc(C(=O)N[C@@H](Cc4ccc5ccccc5c4)C(=O)NCCCC[C@H](NC(=O)N[C@@H](CCC(=O)O)C(=O)O)C(=O)O)ccc3C1)C(=O)NCCNC(=O)CN1CCN(CC(=O)O)CCN(CC(=O)O)CCN(CC(=O)O)CC1)C2)C(=O)O)C(=O)O [DB-11] | tumor growth inhibition ([3]; high dose 0.45 mCi, effect decreased over time, remained higher than PSMA-617): a certain degree of tumor growth inhibition; Tumor uptake [4]: 41.83 % ID/g
– | – | – | – | – | – | – | – | O=C([O-])CN1CCN(CC(=O)[O-])CCN(CC(=O)NCC2CCC(C(=O)N[C@@H](Cc3ccc4ccccc4c3)C(=O)NCCCC[C@H](NC(=O)N[C@@H](CCC(=O)O)C(=O)O)C(=O)O)CC2)CCN(CC(=O)[O-])CC1.[177Lu+3] (stereo partly drawn) [177Lu-PSMA-617] | T/C ([3]; 0.15 mCi/mouse): 97.41%; Tumor volume, 21st day of group administration ([3]; 0.15 mCi/mouse): 2,616.99 ± 203.91 mm^3; T/C ([3]; 0.45 mCi/mouse): 101.47%; Tumor volume, 21st day of group administration ([3]; 0.45 mCi/mouse): 2,726.19 ± 926.52 mm^3
< 10 | 59.07 | -1.79 | 0.93 | 1.715 | 177.885 | 2.725 | 0.73 | O=C(O)CC[C@H](NC(=O)NC(CCCCNC(=O)[C@H](Cc1ccc2ccccc2c1)NC(=O)c1ccc2c(c1)CCN(C(=O)CNC(=O)c1cc(NC(=O)CNC(=O)CN3CCN(CC(=O)O)CCN(CC(=O)O)CCN(CC(=O)O)CC3)cc(C(=O)NCC(=O)N3CCc4cc(C(=O)N[C@@H](Cc5ccc6ccccc6c5)C(=O)NCCCC[C@H](NC(=O)N[C@@H](CCC(=O)O)C(=O)O)C(=O)O)ccc4C3)c1)C2)C(=O)O)C(=O)O (stereo partly drawn) [DB-19] | tumor growth inhibition compared with PSMA-617 ([3]; two doses, 0.15 mCi and 0.45 mCi): superior tumor growth inhibition
< 10 | – | – | – | – | – | – | – | O=C(O)CC[C@H](NC(=O)N[C@@H](CCCCNC(=O)[C@H](Cc1ccc2ccccc2c1)NC(=O)[C@H]1CC[C@H](CNC(=O)c2cc(NC(=O)CN3CCN(CC(=O)O)CCN(CC(=O)O)CCN(CC(=O)O)CC3)cc(C(=O)NC[C@H]3CC[C@H](C(=O)N[C@@H](Cc4ccc5ccccc5c4)C(=O)NCCCC[C@H](NC(=O)N[C@@H](CCC(=O)O)C(=O)O)C(=O)O)CC3)c2)CC1)C(=O)O)C(=O)O [DB-01] | binding affinity compared with PSMA-617 (hPSMA-biotin): slightly higher than that of PSMA-617; Kd (hPSMA-biotin): 0.12 nM; kd (hPSMA-biotin): 2.65e-05 s⁻¹; kon (hPSMA-biotin): 222000 M⁻¹ s⁻¹
< 10 | – | – | – | – | – | – | – | O=C(O)CC[C@H](NC(=O)N[C@@H](CCCCNC(=O)[C@H](Cc1ccc2ccccc2c1)NC(=O)[C@H]1CC[C@H](CNC(=O)CN2CCN(CC(=O)O)CCN(CC(=O)O)CCN(CC(=O)O)CC2)CC1)C(=O)O)C(=O)O [PSMA-617, reference compound] | Kd (hPSMA-biotin): 0.483 nM; kd (hPSMA-biotin): 4.88e-05 s⁻¹; kon (hPSMA-biotin): 101000 M⁻¹ s⁻¹
< 10 | 86.61 | -3.46 | 2.06 | 0.02 | 2.01 | 0.09 | 0.035 | O=C(O)CC[C@H](NC(=O)N[C@@H](CCCCNC(=O)[C@H](Cc1ccc2ccccc2c1)NC(=O)c1ccc2c(c1)CCN(C(=O)CN1CCN(CC(=O)O)CCN(CC(=O)O)CCN(CC(=O)O)CC1)C2)C(=O)O)C(=O)O [Compound E-3, reference compound] | Tumor uptake [4]: 32.875 % ID/g
